The results in this text go back to patent US10669296B2, “LXR agonists and uses thereof” (Rgenix, Inc., priority 2014, dated 2020).

A value given as a limit tells only on which side of the number the result lay.

The subject of this test is ApoE. As to the kind of experiment: ApoE gene expression analysis by qRT-PCR in MeWo cancer cells. To be noted: 48 h; for Emax at 1 µM / Emax at 10 µM: read-out: ApoE gene expression in relation to GW3965 at 1 μM (100%). In kind it is cell-based. How it is done:
Cancer cells (MeWo) were treated in presence of drug or control (DMSO) at indicated concentrations for 48 h. RNA was extracted from whole cell lysates using the Total RNA Purification Kit (17200, Norgen, Thorold, Canada). 600 ng of total RNA was then reverse transcribed into cDNA using the Verso cDNA Synthesis Kit (AB-1453/B, Fisher Scientific). 6 ng of the resulting cDNA was then mixed with SYBR green PCR Master Mix (4309155, Applied Biosystems) and the appropriate primers. Each reaction was performed in quadruplicate, and mRNA expression was quantified by performing real-time PCR amplification using a StepOne Plus Real-Time PCR System (Applied Biosystems). GAPDH was used as an endogenous control for normalization. EC50 values were calculated using Prism6 software and plotting expression values versus drug concentration. The following primers were used: [table] The results are shown in relation to GW3965 ApoE expression at 1 μM (i.e. 100%).
Background: Quantitative PCR measures a nucleic acid by following its amplification.

Take `CS(=O)(=O)NC(=O)Cc1cccc(OCCCN(Cc2cccc(C(F)(F)F)c2Cl)CC(c2ccccc2)c2ccccc2)c1` [Compound 2, 2-{3-[3-({[2-chloro-3-(trifluoromethyl)phenyl]methyl}(2,2-diphenylethyl)amino)propoxy]phenyl}-N-methanesulfonylacetamide]: the Emax at 1 µM (Homo sapiens, MeWo, 1 μM) is greater than 40%. Also, where the note is “Homo sapiens, MeWo, 10 μM”, the Emax at 10 µM is greater than 40%.

With `O=C(O)c1cccc(OCCCN(Cc2cccc(C(F)(F)F)c2Cl)CC(c2ccccc2)c2ccccc2)c1` [Compound 3, 3-[3-({[2-chloro-3-(trifluoromethyl)phenyl]methyl}(2,2-diphenylethyl)amino)propoxy]benzoic acid], the Emax at 1 µM (Homo sapiens, MeWo, 1 μM) was greater than 40%. Moreover, the Emax at 10 µM (Homo sapiens, MeWo, 10 μM) was less than 40%.

By EC50 is commonly meant the concentration at which the effect is half-maximal. A lower EC50 goes with greater potency. Take `CC(C)(O)c1cccc(OCCCN(Cc2cccc(C(F)(F)F)c2Cl)CC(c2ccccc2)c2ccccc2)c1` [Compound 4, 2-{3-[3-({[2-chloro-3-(trifluoromethyl)phenyl]methyl}(2,2-diphenylethyl)amino)propoxy]phenyl}propan-2-ol]: the EC50 (Homo sapiens, MeWo) is less than 1000 nM. Further, the Emax at 1 µM (Homo sapiens, MeWo, 1 μM) is greater than 40%. For the setting “Homo sapiens, MeWo, 10 μM”, the Emax at 10 µM was greater than 40%.

As for `O=C1Cc2cc(OCCCN(Cc3cccc(C(F)(F)F)c3Cl)CC(c3ccccc3)c3ccccc3)ccc2CO1` [Compound 6, 6-[3-({[2-chloro-3-(trifluoromethyl)phenyl]methyl}(2,2-diphenylethyl)amino)propoxy]-3,4-dihydro-1H-2-benzopyran-3-one], the EC50 (Homo sapiens, MeWo) was less than 300 nM. Also, under “Homo sapiens, MeWo, 1 μM”, the Emax at 1 µM is greater than 80%. Moreover, the Emax at 10 µM (Homo sapiens, MeWo, 10 μM) is greater than 40%.

For `CS(=O)(=O)c1cccc(OCCCN(Cc2cccc(C(F)(F)F)c2Cl)CC(c2ccccc2)c2ccccc2)c1` [Compound 7, {[2-chloro-3-(trifluoromethyl)phenyl]methyl}(2,2-diphenylethyl)[3-(3-methanesulfonylphenoxy)propyl]amine], the EC50 (Homo sapiens, MeWo) was less than 1000 nM. Where the note is “Homo sapiens, MeWo, 1 μM”, the Emax at 1 µM is greater than 80%. The Emax at 10 µM (Homo sapiens, MeWo, 10 μM) is greater than 40%.

In the case of `O=C(O)Cc1cccc(OCCCN(Cc2cccc(OC(F)(F)F)c2)CC(c2ccccc2)c2ccccc2)c1` [Compound 24], for the setting “Homo sapiens, MeWo, 1 μM”, the Emax at 1 µM is greater than 40%. Further, the Emax at 10 µM (Homo sapiens, MeWo, 10 μM) is greater than 40%.

As to `O=C(O)Cc1cccc(OCCCN(Cc2cccc(OC(F)(F)C(F)F)c2)CC(c2ccccc2)c2ccccc2)c1` [Compound 25, 2-(3-{3[(2,2-diphenylethyl)({[3-(1,1,2,2-tetrafluoroethoxy)phenyl]methyl})amino]propoxy}phenyl)acetic acid], under “Homo sapiens, MeWo, 1 μM”, the Emax at 1 µM was greater than 40%. The Emax at 10 µM (Homo sapiens, MeWo, 10 μM) is less than 40%.

Take `O=C(O)Cc1cccc(OCCCN(Cc2cccc3c2OC(F)(F)O3)CC(c2ccccc2)c2ccccc2)c1` [Compound 26, 2[3-(3-{[(2,2-difluoro-2H-1,3-benzodioxol-4-yl)methyl](2,2-diphenylethyl)amino}propoxy)phenyl]acetic acid]: where the note is “Homo sapiens, MeWo, 1 μM”, the Emax at 1 µM is less than 40%. The Emax at 10 µM (Homo sapiens, MeWo, 10 μM) is less than 40%.

Regarding `C[C@H](CCO[C@@H]1CCCN(S(C)(=O)=O)C1)N(Cc1cccc(C(F)(F)F)c1Cl)CC(c1ccccc1)c1ccccc1` [Compound 30, {[2-chloro-3-(trifluoromethyl)phenyl]methyl}(2,2-diphenylethyl)[(2R)-4-{[(3R)-1-methanesulfonylpiperidin-3-yl]oxy}butan-2-yl]amine], where the note is “Homo sapiens, MeWo, 1 μM”, the Emax at 1 µM was greater than 40%. Further, the Emax at 10 µM (Homo sapiens, MeWo, 10 μM) is greater than 80%.

`CS(=O)(=O)c1cc(OCCCN(Cc2cccc(C(F)(F)F)c2Cl)CC(c2ccccc2)c2ccccc2)cc(F)c1C(=O)O` [Compound 35, 4-[3-({[2-chloro-3-(trifluoromethyl)phenyl]methyl}(2,2-diphenylethyl)amino)propoxy]-2-fluoro-6-methanesulfonylbenzoic acid]: the EC50 (Homo sapiens, MeWo) was less than 3000 nM. Further, the Emax at 1 µM (Homo sapiens, MeWo, 1 μM) is less than 40%. The Emax at 10 µM (Homo sapiens, MeWo, 10 μM) was greater than 40%.

Under “Homo sapiens, MeWo”, `CC(CCN(Cc1cccc(C(F)(F)F)c1Cl)CC(c1ccccc1)c1ccccc1)Oc1cc(F)c(CO)c(S(C)(=O)=O)c1` (centres unmarked) [Compound 59, (4-{[4-({[2-chloro-3-(trifluoromethyl)phenyl]methyl}(2,2-diphenylethyl)amino)butan-2-yl]oxy}-2-fluoro-6-methanesulfonylphenyl)methanol] gave an EC50 of less than 300 nM. The Emax at 1 µM (Homo sapiens, MeWo, 1 μM) is greater than 40%. Besides, the Emax at 10 µM (Homo sapiens, MeWo, 10 μM) was greater than 40%.

For the setting “Homo sapiens, MeWo”, `CC(C)(O)c1c(F)cc(OCCCN(Cc2cccc(C(F)(F)F)c2Cl)CC(c2ccccc2)c2ccccc2)cc1S(C)(=O)=O` [Compound 60, 2-{4-[3-({[2-chloro-3-(trifluoromethyl)phenyl]methyl}(2,2-diphenylethyl)amino)propoxy]-2-fluoro-6-methanesulfonylphenyl}propan-2-ol] showed an EC50 of less than 300 nM. Besides, the Emax at 1 µM (Homo sapiens, MeWo, 1 μM) was greater than 40%. The Emax at 10 µM (Homo sapiens, MeWo, 10 μM) was greater than 80%.

Turning to `CS(=O)(=O)N1CC[C@H](OCCCN(Cc2cccc(C(F)(F)F)c2Cl)CC(c2ccccc2)c2ccccc2)C1` [Compound 61, {[2-chloro-3-(trifluoromethyl)phenyl]methyl}(2,2-diphenylethyl)(3-{[(3S)-1-methanesulfonylpyrrolidin-3-yl]oxy}propyl)amine], the Emax at 1 µM (Homo sapiens, MeWo, 1 μM) was greater than 40%. Further, the Emax at 10 µM (Homo sapiens, MeWo, 10 μM) is greater than 80%.

For the molecule `CS(=O)(=O)N1CC(OCCCN(Cc2cccc(C(F)(F)F)c2Cl)CC(c2ccccc2)c2ccccc2)C1` [Compound 62, {[2-chloro-3-(trifluoromethyl)phenyl]methyl} (2,2-diphenylethyl){3-[(1-methanesulfonylazetidin-3-yl)oxy]propyl}amine], under “Homo sapiens, MeWo”, the EC50 is less than 1000 nM. For the same molecule, the Emax at 1 µM (Homo sapiens, MeWo, 1 μM) was greater than 80%. Moreover, the Emax at 10 µM (Homo sapiens, MeWo, 10 μM) was greater than 80%.

For `CS(=O)(=O)N1CCC[C@@H](OCCCN(Cc2cccc(C(F)(F)F)c2Cl)CC(c2ccccc2)c2ccccc2)C1` [Compound 63, {[2-chloro-3-(trifluoromethyl)phenyl]methyl}(2,2-diphenylethyl)(3-{[(3R)-1-methanesulfonylpiperidin-3-yl]oxy}propyl)amine], the EC50 was less than 3000 nM. Also, the “ApoE gene expression in relation to GW3965 at 1 μM (100%)” value (“ApoE gene expression … (100%)” below) (1 μM) is reported as “+++ (“+++” > 80% ApoE induction)”. For the same molecule, the “ApoE gene expression … (100%)” value (10 μM) is “+++ (“+++” > 80% ApoE induction)”.

Regarding `COC(=O)c1c(F)cc(OCCCN(Cc2cccc(C(F)(F)F)c2Cl)CC(c2ccccc2)c2ccccc2)cc1S(C)(=O)=O` [Compound 64, methyl 4-[3-({[2-chloro-3-(trifluoromethyl)phenyl]methyl}(2,2-diphenylethyl)amino)propoxy]-2-fluoro-6-methanesulfonylbenzoate], the EC50 (Homo sapiens, MeWo) is less than 1000 nM. In addition, the Emax at 1 µM (Homo sapiens, MeWo, 1 μM) is greater than 80%. Besides, the Emax at 10 µM (Homo sapiens, MeWo, 10 μM) was greater than 80%.

In the case of `CS(=O)(=O)c1cc(OCCCN(Cc2cccc(C(F)(F)F)c2Cl)CC(c2ccccc2)c2ccccc2)cc(F)c1C=O` [Compound 65, 4-[3-({[2-chloro-3-(trifluoromethyl)phenyl]methyl}(2,2-diphenylethyl)amino)propoxy]-2-fluoro-6-methanesulfonyl-benzaldehyde], where the note is “Homo sapiens, MeWo”, the EC50 is less than 1000 nM. In addition, for the setting “Homo sapiens, MeWo, 1 μM”, the Emax at 1 µM was greater than 80%. For the same molecule, the Emax at 10 µM (Homo sapiens, MeWo, 10 μM) was greater than 80%.

`CS(=O)(=O)N1CCC[C@H](OCCCN(Cc2cccc(C(F)(F)F)c2Cl)CC(c2ccccc2)c2ccccc2)C1` [Compound 66, {[2-chloro-3-(trifluoromethyl)phenyl]methyl}(2,2-diphenylethyl)(3-{[(3S)-1-methanesulfonylpiperidin-3-yl]oxy}propyl)amine] registered an EC50 of less than 3000 nM. The “ApoE gene expression … (100%)” value (1 μM) is “+++ (“+++” > 80% ApoE induction)”. Further, the “ApoE gene expression … (100%)” value (10 μM) was “+++ (“+++” > 80% ApoE induction)”.

Regarding `C[C@@H](CCOc1cc(F)c(CO)c(S(C)(=O)=O)c1)N(Cc1cccc(C(F)(F)F)c1Cl)CC(c1ccccc1)c1ccccc1` [Compound 71, {4-[(3S)-3-({[2-chloro-3-(trifluoromethyl)phenyl]methyl}(2,2-diphenylethyl)amino)butoxy]-2-fluoro-6-methanesulfonylphenyl}methanol], the Emax at 1 µM (Homo sapiens, MeWo, 1 μM) was less than 40%.

Consider `CS(=O)(=O)c1cc(OCCCN(Cc2cccc(C(F)(F)F)c2F)CC(c2ccccc2)c2ccccc2)cc(F)c1CO` [Compound 72, (4-{3-[(2,2-diphenylethyl)({[2-fluoro-3-(trifluoromethyl)phenyl]methyl})amino]propoxy}-2-fluoro-6-methanesulfonylphenyl)methanol], for which, where the note is “Homo sapiens, MeWo, 1 μM”, the Emax at 1 µM is greater than 80%. Moreover, the Emax at 10 µM (Homo sapiens, MeWo, 10 μM) is greater than 80%.

Consider `CS(=O)(=O)c1cc(OCCCN(Cc2cccc(C(F)(F)F)c2)CC(c2ccccc2)c2ccccc2)cc(F)c1CO` [Compound 73, (4-{3-[(2,2-diphenylethyl)({[3-(trifluoromethyl)phenyl]methyl})amino]propoxy}-2-fluoro-6-methanesulfonylphenyl)methanol], for which the Emax at 1 µM (Homo sapiens, MeWo, 1 μM) is greater than 80%. In addition, the Emax at 10 µM (Homo sapiens, MeWo, 10 μM) was greater than 80%.

On to `CS(=O)(=O)c1cc(OCCCN(Cc2cccc(OC(F)(F)F)c2)CC(c2ccccc2)c2ccccc2)cc(F)c1CO` [Compound 74, (4-{3-[(2,2-diphenylethyl)({[3-(trifluoromethoxy)phenyl]methyl})amino]propoxy}-2-fluoro-6-methanesulfonylphenyl)methanol], for which the Emax at 1 µM (Homo sapiens, MeWo, 1 μM) is greater than 40%. Further, the Emax at 10 µM (Homo sapiens, MeWo, 10 μM) was greater than 40%.

With `CS(=O)(=O)c1cc(OCCCN(Cc2ccc(F)c(C(F)(F)F)c2)CC(c2ccccc2)c2ccccc2)cc(F)c1CO` [Compound 75, (4-{3-[(2,2-diphenylethyl)({[4-fluoro-3-(trifluoromethyl)phenyl]methyl})amino]propoxy}-2-fluoro-6-methanesulfonylphenyl)methanol], the Emax at 1 µM (Homo sapiens, MeWo, 1 μM) was greater than 40%. In addition, the Emax at 10 µM (Homo sapiens, MeWo, 10 μM) is greater than 80%.
